Assay results reported in ChEMBL document CHEMBL6087471, “A Collection of Novel Antitumor Agents That Regulate Lipid Metabolism in the Tumor Microenvironment” (J Med Chem, 2025).

How the values were obtained:
[1] = Inhibition of ACC1 (unknown origin); parameters: species or system Homo sapiens
[2] = Inhibition of rat CPT2
Autotaxin = Autotaxin (Homo sapiens, UniProt Q13822)
Description: Inhibition of ATX (unknown origin)

[3] = Inhibition of CPT1 (unknown origin); parameters: species or system Homo sapiens
[4] = Binding affinity to rat liver mitochondria CPT1 assessed as inhibition constant measured for 6 mins by Liquid scintillation counting method
MCF7 = assay: Antiproliferative activity against human MCF7 cells assessed as reduction in cell growth; format: functional, cell-based
[5] = biological target: T1, Diacylglycerol O-acyltransferase 2 (Homo sapiens, UniProt Q96PD7); assay: Inhibition of DGAT2 (unknown origin)
T1 sequence (Q96PD7 whole entry): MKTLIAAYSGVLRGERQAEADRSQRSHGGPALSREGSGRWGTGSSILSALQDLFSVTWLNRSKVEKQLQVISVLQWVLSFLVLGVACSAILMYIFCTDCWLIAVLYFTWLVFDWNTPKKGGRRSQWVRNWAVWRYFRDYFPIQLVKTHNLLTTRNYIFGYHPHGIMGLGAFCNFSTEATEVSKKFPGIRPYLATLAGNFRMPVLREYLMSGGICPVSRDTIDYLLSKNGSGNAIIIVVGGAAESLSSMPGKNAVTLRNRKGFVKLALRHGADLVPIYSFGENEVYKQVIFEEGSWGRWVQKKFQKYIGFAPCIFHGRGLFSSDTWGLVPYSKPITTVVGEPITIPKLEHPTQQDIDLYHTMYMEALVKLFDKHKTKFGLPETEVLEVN

Bile acid receptor = biological target: T2, Bile acid receptor (Homo sapiens, UniProt Q96RI1); assay: Agonist activity at FXR (unknown origin)
T2 sequence (Q96RI1 whole entry): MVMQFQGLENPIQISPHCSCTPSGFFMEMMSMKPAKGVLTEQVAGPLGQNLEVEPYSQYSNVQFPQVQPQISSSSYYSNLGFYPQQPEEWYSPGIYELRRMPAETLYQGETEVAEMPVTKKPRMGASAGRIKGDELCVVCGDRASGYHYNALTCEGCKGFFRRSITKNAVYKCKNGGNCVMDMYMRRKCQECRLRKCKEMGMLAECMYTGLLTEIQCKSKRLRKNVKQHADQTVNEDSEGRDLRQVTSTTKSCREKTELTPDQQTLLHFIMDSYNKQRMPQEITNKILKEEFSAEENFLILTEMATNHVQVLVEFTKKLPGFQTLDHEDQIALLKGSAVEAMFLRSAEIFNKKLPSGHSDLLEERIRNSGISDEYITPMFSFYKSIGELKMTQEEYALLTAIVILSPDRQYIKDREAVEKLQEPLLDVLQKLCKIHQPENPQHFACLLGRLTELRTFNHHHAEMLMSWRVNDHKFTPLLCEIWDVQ

Platelet glycoprotein 4 = Platelet glycoprotein 4 (Homo sapiens, UniProt P16671); assay: Inhibition of N-terminal Flag-tagged human CD36
Platelet glycoprotein 4, sequence (P16671 whole entry): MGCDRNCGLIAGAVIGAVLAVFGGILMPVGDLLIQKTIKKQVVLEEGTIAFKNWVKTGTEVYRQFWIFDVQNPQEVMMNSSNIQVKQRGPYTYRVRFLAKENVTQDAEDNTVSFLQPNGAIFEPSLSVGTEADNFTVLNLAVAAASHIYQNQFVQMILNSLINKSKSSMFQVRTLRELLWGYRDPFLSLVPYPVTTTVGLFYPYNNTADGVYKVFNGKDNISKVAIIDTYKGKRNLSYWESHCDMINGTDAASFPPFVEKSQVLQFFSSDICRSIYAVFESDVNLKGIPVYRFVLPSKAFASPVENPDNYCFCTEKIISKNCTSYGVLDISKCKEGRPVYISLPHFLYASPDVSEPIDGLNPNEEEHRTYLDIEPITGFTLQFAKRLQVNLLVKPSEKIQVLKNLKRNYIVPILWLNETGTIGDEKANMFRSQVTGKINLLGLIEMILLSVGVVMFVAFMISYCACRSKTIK

A549 = assay: Antiproliferative activity against human A549 cells; format: functional, cell-based
PC-3 = assay: Antiproliferative activity against human PC-3 cells; format: functional, cell-based
SK-OV-3 = assay: Antiproliferative activity against human SK-OV-3 cells; format: functional, cell-based

SMILES: CC(=O)N1CCC(C(=O)N2CCC(N3CCN(C(=O)c4cc(-c5ccc(C)cc5)nc(-c5ccc(C)cc5)c4)CC3)CC2)CC1
- IC50 [1]: 76 nM

SMILES: O=C(c1c2ccccc2cc2ccccc12)N1CCN(C2CCN(C(=O)N3CCOCC3)CC2)CC1
- IC50 [1]: 239 nM

SMILES: CCCCCCCCCCCCCCNC(=O)N[C@H](CC(=O)[O-])C[N+](C)(C)C
- IC50 [2]: 240 nM

SMILES: CCCCCCCCCCCCCC(=O)Nc1ccc(CP(=O)(O)O)cc1
- IC50 (Autotaxin): 5.6 nM

SMILES: O=C(c1c2ccccc2cc2ccccc12)N1CCC(N2CCC[C@@H](C(=O)N3CCOCC3)C2)CC1
- IC50 [1]: 116 nM

SMILES: COc1ccc(CN2CCN(CCCSc3cc(C(C)(C)C)c(O)c(C(C)(C)C)c3)CC2)c(OC)c1OC
- IC50 [3]: 50800 nM

SMILES: Cc1nc(-c2cc(C(=O)N3CCC(c4ccc(C#N)cc4)CC3)c(C)cc2C2CCC2)n[nH]1
- IC50 [1]: 40 nM

SMILES: Cc1cc(C)c(-c2[nH]nc(C)c2C)cc1C(=O)N1CC(c2ccc(C#N)cc2)C1
- IC50 [1]: 20 nM

SMILES: COc1ccc(-c2ccccc2)cc1NS(=O)(=O)c1cc(Cl)cc(Cl)c1O
- IC50 [3]: 130 nM

SMILES: CCOC(=O)c1sc2c(c1C)c(=O)n(CCO)c(=O)n2CCc1ccccc1
- IC50 [1]: 3.9 nM

SMILES: C=C1C(=O)O[C@H](CCCCCCCC)[C@H]1C(=O)O
- IC50 [1]: 460 nM

SMILES: COc1cc(C(=O)N2CCC3(CC2)CC(=O)c2cc(-c4cncc(C(=O)O)c4)ccc2O3)cc2c1c(C)cn2C1CC1
- IC50 [1]: 3 nM

SMILES: CCCCCCCCCCCCCCC[C@@]1(O)C[N+](C)(C)C[C@@H](CC(=O)[O-])O1
- Ki [4]: 4200 nM

SMILES: COC(=O)c1cc(Cl)c(O)c(S(=O)(=O)Nc2cc(-c3ccccc3)c(F)cc2F)c1
- IC50 [3]: 44 nM

SMILES: COCc1nc(C(F)(F)F)[nH]c1-c1cc(C(=O)N2CC(c3ccc(C#N)cc3)C2)c(C)cc1C
- IC50 [1]: 40 nM

SMILES: CCCCCCOc1cccc(OCCCCNC(=O)N[C@@H](CC(=O)O)CN(C)C)c1
- IC50 [3]: 44 nM

SMILES: Cc1sc2ncnc(NC3CCN(Cc4ccccc4)C3)c2c1C (stereo unspecified)
- IC50 (MCF7): 0.3 nM

SMILES: O=C(NC1(C(=O)N[C@@H]2CC(=O)c3ccccc3N(Cc3cc(C(F)(F)F)cc(C(F)(F)F)c3)C2=O)CC1)c1ccc(F)cc1
- IC50 [5]: > 75.5 nM

SMILES: O=C1Nc2ccccc2-c2cc(c(F)cc2F)NS(=O)(=O)c2cc1cc(Cl)c2O
- IC50 [3]: 69.7 nM

SMILES: CC(C)N(C(=O)n1nnn(-c2c(F)cccc2F)c1=O)c1ccc(C(=O)O)cc1Oc1ccccc1
- IC50 (MCF7): 19 nM

SMILES: CCc1nc2c(C)cc(-c3ccc(CN(CCO)CCO)cc3)cn2c1NC(=O)NCc1ccc(Cl)cc1
- IC50 (Autotaxin): 3.98 nM

SMILES: Cc1cc(-c2nc3ccc(C(=O)O)cc3n2C)ccc1OCc1c(-c2c(Cl)cccc2Cl)noc1C(C)C
- EC50 (Bile acid receptor): 13.4 nM

SMILES: CCCCCCCC/C=C\CCCCCCCC(=O)ON1C(=O)CC(S(=O)(=O)O)C1=O (stereo unspecified)
- IC50 (Platelet glycoprotein 4): 4000 nM

SMILES: CC(C)(C)OC(=O)NC1(C(=O)N[C@@H]2CC(=O)c3ccccc3N(Cc3cc(C(F)(F)F)cc(C(F)(F)F)c3)C2=O)CC1
- IC50 [5]: > 75.5 nM

SMILES: CC(C)(CCCCCC(O)CCCCCC(C)(C)C(=O)O)C(=O)O [BEMPEDOIC ACID]
- IC50 (A549): 24000 nM
- IC50 (PC-3): 26000 nM
- IC50 (SK-OV-3): 53000 nM

SMILES: COc1ccccc1[C@H](Cn1c(=O)n(C(C)(C)C(=O)O)c(=O)c2c(C)c(-c3ncco3)sc21)OC1CCOCC1 [FIRSOCOSTAT]
- IC50 [1]: 2.1 nM

SMILES: CCCCCCCCCCC[C@@H](C[C@@H]1OC(=O)[C@H]1CCCCCC)OC(=O)[C@H](CC(C)C)NC=O [ORLISTAT]
- IC50 (MCF7): 250 nM

SMILES: COc1ccc(CN2CCNCC2)c(OC)c1OC [TRIMETAZIDINE]
- IC50 [3]: 759000 nM

SMILES: C[C@H](CCC(=O)O)[C@H]1CC[C@H]2[C@@H]3[C@@H](O)C[C@@H]4C[C@H](O)CC[C@]4(C)[C@H]3CC[C@]12C [URSODIOL]
- IC50 (Autotaxin): 2800 nM
